Experiments:
[1] = Dynamic light scattering (DLS) of mRNA/peptoid formulations: particle size and polydispersity; assay type: physicochemical; conditions: Fluc mRNA/peptoid formulation; for Size PDI: size polydispersity index by DLS, 5:1 mass ratio; for Size (nm): volume average particle size/diameter by DLS, 5:1 mass ratio peptoid:cargo
Summary of the method: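 Volume-average particle diameter (nm) and PDI were measured by dynamic light scattering. Formulations combined peptoid diluted in ethanol with Fluc mRNA in pH 5.5 PBS at 1:3 by volume, mixed by pipetting at 5:1 peptoid:mRNA by mass.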

[2] = mRNA encapsulation by fluorescence of Qubit RNA HS dye before and after lysis with Triton X-100; assay type: physicochemical; conditions: percentage of mRNA encapsulation; Fluc mRNA/peptoid formulation, 5:1 mass ratio
Summary of the method: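 Encapsulation was measured by comparing Qubit RNA HS fluorescence of intact particles with that after Triton X-100 lysis. Particles were amino-lipidated cationic peptoids complexed with firefly luciferase mRNA at 5:1 peptoid:cargo by mass, mixed by pipetting.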

HeLa cells [3] = experiment: In vitro expression of firefly luciferase (Fluc) after treatment with Fluc mRNA/amino lipidated peptoid formulations, no PEG or 2% DMG-PEG2000; assay type: cell-based
Summary of the method: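 HeLa cells received 100 ng/well Fluc mRNA complexed with amino lipidated peptoid at 5:1 peptoid:mRNA (w/w), either peptoid alone or with 2% w/w DMG-PEG2000. Expression quantified as RLU by luminescence at 6 and 24 h.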

HeLa cells [4] = experiment: In vitro Fluc expression with variable peptoid:mRNA mass ratio, 2% DMG-PEG2000; assay type: cell-based; conditions: 24 h; for Observed Luciferase Expression (RLU) for Given Formulation Mass Ratio 2:1: 2% (w/w) DMG-PEG2000, peptoid:mRNA 2:1; for Observed Luciferase Expression (RLU) for Given Formulation Mass Ratio 3.5:1: 2% (w/w) DMG-PEG2000, peptoid:mRNA 3.5:1; for Observed Luciferase Expression (RLU) for Given Formulation Mass Ratio 5:1: 2% (w/w) DMG-PEG2000, peptoid:mRNA 5:1; for Observed Luciferase Expression (RLU) for Given Formulation Mass Ratio 7.5:1: 2% (w/w) DMG-PEG2000, peptoid:mRNA 7.5:1
Summary of the method: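 HeLa cells exposed 24 hours to amino lipidated peptoid/Fluc mRNA formulations containing 2% w/w DMG-PEG2000 (relative to peptoid), across peptoid:mRNA mass ratios of 2:1 to 7.5:1. Read-out: average luciferase bioluminescence (RLU).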

[5] = MTT viability assay after treatment with Fluc mRNA/amino lipidated peptoid formulations; assay type: cell-based; conditions: human, HeLa cells
Summary of the method: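 Viability relative to untreated cells came from the formazan read-out after 2 h with 1.5 mg/mL MTT and acidic isopropanol/Triton lysis. The MTT step followed an 8 h exposure to 100 ng/well Fluc mRNA in 5:1 peptoid:mRNA, 2% DMG-PEG2000 formulations and a further 48 h of culture.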

Balb/c mice [6] = experiment: In vivo whole-body expression of Fluc following IV administration; conditions: Balb/c mice (n=3), IV tail-vein, 0.5 mg/kg, 5:1 peptoid:mRNA, 2% w/w DMG-PEG2000, 8 hours
Protocol: (§1) Amino lipidated peptoid delivery vehicles are effective for in vivo administration of Fluc mRNA to Balb/c mice (n=3) through multiple routes of administration. Briefly, representative amino lipidated peptoid/Fluc formulations (prepared at a 5:1 mass ratio of amino lipidated peptoid:mRNA unless noted, with 2% w/w DMG-PEG2000) were administered at a dose of 0.5 mg/kg via a tail-vein injection, and the resulting bioluminescence was quantified after 8 hours.

Balb/c mice [7] = experiment: In vivo organ-specific bioluminescence (biodistribution of Fluc) following IV administration; conditions: for Total Flux (p/s) Liver: dissected liver; for Total Flux (p/s) Lung: dissected lung; for Total Flux (p/s) Spleen: dissected spleen
Protocol: as §1, with “hours. […] Organ-specific bioluminescence was quantified by sacrificing the treated animal, dissecting out the organs of interest, and separately quantifying the resulting bioluminescence. […] FIG. 7C depicts a bar chart quantifying the organ-specific biodistribution of the formulations as a function of total photon flux.” for “hours.”

Balb/c mice [8] = experiment: In vivo expression of Fluc following subcutaneous or intramuscular administration; conditions: for Total Flux (photons/sec) I.M. (0.05 mpk): mRNA 0.05 mpk; for Total Flux (photons/sec) S.C. (0.1 mpk): subcutaneous, mRNA 0.1 mpk
Protocol: In addition to IV administration, amino lipidated peptoids are also effective for local administration of mRNA through subcutaneous (S.C.) or intramuscular (I.M.) routes of administration. […] For these examples, mRNA was administered at a dose of 0.1 milligrams/kilogram (mpk) for subcutaneous or 0.05 mpk for intramuscular. In these cases, the overall expression was higher following intramuscular injections. […] Additional experiments were carried out to assess any variability in biodistribution as a function of the loading mass ratio of amino lipidated peptoid to the Fluc mRNA. FIG. 8A depicts a plot of total photon flux for formulations of amino lipidated peptoid compound 28 with 2% DMG-PEG 2000 and Fluc mRNA at different peptoid:mRNA ratios (1:1, 2:1, 5:1, 7.5:1 and 10:1).

[9] = no PEG, peptoid:Fluc mRNA 5:1 w/w, 100 ng/well, 6 h of treatment
[10] = no PEG, peptoid:Fluc mRNA 5:1 w/w, 100 ng/well, 24 h of treatment
[11] = with 2% (w/w) DMG-PEG2000, peptoid:mRNA 5:1, 6 h after treatment
[12] = with 2% (w/w) DMG-PEG2000, peptoid:mRNA 5:1, 24 h after treatment

SMILES | Size PDI [1] | Size (nm) [1] [nm] | % Encapsulation [2] [%] | Luciferase Expression (RLU) 6 h (HeLa cells [3]; [9]) [RLU] | Luciferase Expression (RLU) 24 h (HeLa cells [3]; [10]) [RLU] | Luciferase Expression (RLU) 6 h (HeLa cells [3]; [11]) [RLU] | Luciferase Expression (RLU) 24 h (HeLa cells [3]; [12]) [RLU] | Observed Luciferase Expression (RLU) for Given Formulation Mass Ratio 2:1 (HeLa cells [4]) [RLU] | Observed Luciferase Expression (RLU) for Given Formulation Mass Ratio 3.5:1 (HeLa cells [4]) [RLU] | Observed Luciferase Expression (RLU) for Given Formulation Mass Ratio 5:1 (HeLa cells [4]) [RLU] | Observed Luciferase Expression (RLU) for Given Formulation Mass Ratio 7.5:1 (HeLa cells [4]) [RLU] | viability at 8 h, 500 ng/well ([5]; Relative Viability (%) 2% PEG) [%] | viability at 8 h, 500 ng/well ([5]; Relative Viability (%) No PEG) [%] | Total Flux (photons/sec), whole body (Balb/c mice [6]) [photons/sec] | Total Flux (p/s) Liver (Balb/c mice [7]) [p/s] | Total Flux (p/s) Lung (Balb/c mice [7]) [p/s] | Total Flux (p/s) Spleen (Balb/c mice [7]) [p/s] | Total Flux (photons/sec) I.M. (0.05 mpk) (Balb/c mice [8]; intramuscular) [photons/sec] | Total Flux (photons/sec) S.C. (0.1 mpk) (Balb/c mice [8]) [photons/sec] | further results
CCCCCCCCCCN(CC(N)=O)C(=O)CN(CCCCCCCCCC)C(=O)CN(CCc1ccccc1)C(=O)CN(CCc1ccccc1)C(=O)CN(CCN)C(=O)CN(CCc1ccccc1)C(=O)CN(CCc1ccccc1)C(=O)CN(CCN)C(=O)CN(CCc1ccccc1)C(=O)CN(CCc1ccccc1)C(=O)CNCCN [Compound 2] | 0.128 | 150 | 100.3 | 2.35E+02 | 1.35E+02 | 5.40E+01 | 1.17E+02 | 2.45E+04 | 1.80E+04 | 2.81E+04 | 1.49E+03 | 92.6 | 90.6 | 1.37E+07 | 1.40E+06 | 2.46E+07 | 3.39E+06 | 1.27E+05 | 8.31E+04 | 
CCCCCCCCCCN(CC(N)=O)C(=O)CN(CCCCCCCCCC)C(=O)CN(CCc1ccccc1)C(=O)CN(CCc1ccccc1)C(=O)CN(CCN)C(=O)CN(CCc1ccccc1)C(=O)CN(CCc1ccccc1)C(=O)CNCCN [Compound 10] | 0.009 | 157 | 92.6 | 1.88E+03 | 7.01E+02 | 2.21E+02 | 2.43E+02 | 5.57E+03 | 1.23E+04 | 3.51E+04 | 3.57E+02 | 108 | 101 | 1.04E+07 | 5.85E+05 | 5.14E+06 | 2.17E+06 | 9.01E+05 | 1.40E+05 | 
CCCCCCCCCCN(CC(N)=O)C(=O)CN(CCCCCCCCCC)C(=O)CN(CCN)C(=O)CN(CCN)C(=O)CNCCN [Compound 14] | 0.233 | 554 | 77.3 | 3.20E+01 | 1.43E+01 | 4.67E+00 | 9.00E+00 | 8.31E+01 | 1.42E+02 | 4.29E+01 | 2.82E+01 | 91 |  | 4.58E+05 | 4.47E+04 | 4.17E+04 | 4.89E+04 |  |  | 
CCCCCCCCCCN(CC(N)=O)C(=O)CN(CCCCCCCCCC)C(=O)CN(CCCCCCCCCC)C(=O)CN(CCCCCCCCCC)C(=O)CN(CCc1ccccc1)C(=O)CN(CCc1ccccc1)C(=O)CN(CCCN)C(=O)CN(CCc1ccccc1)C(=O)CN(CCc1ccccc1)C(=O)CN(CCCN)C(=O)CN(CCc1ccccc1)C(=O)CN(CCc1ccccc1)C(=O)CNCCCN [Compound 28] | 0.085 | 308 | 52.0 | 9.59E+02 | 4.97E+03 | 8.33E+02 | 6.94E+02 | 1.26E+02 | 1.93E+03 | 5.75E+03 | 2.07E+04 | 92.7 | 85.4 | 2.36E+08 | 1.10E+07 | 7.08E+07 | 2.16E+08 | 7.23E+06 | 1.65E+06 | organ localization of Fluc expression (Balb/c mice [7]; organ-specific bioluminescence): preferential localization in other organs such as the spleen; expression after IM administration compared with Compound 8 (Balb/c mice [8]; intramuscular): significantly outperformed that example
CCCCCCCCCCN(CC(N)=O)C(=O)CN(CCCCCCCCCC)C(=O)CN(CCc1ccccc1)C(=O)CN(CCc1ccccc1)C(=O)CN(CC1CCCN1)C(=O)CN(CCc1ccccc1)C(=O)CN(CCc1ccccc1)C(=O)CN(CC1CCCN1)C(=O)CN(CCc1ccccc1)C(=O)CN(CCc1ccccc1)C(=O)CNCC1CCCN1 (stereo not shown) [Compound 36] | 0.127 | 374.4 | 71.5 | 9.34E+03 | 7.78E+03 | 3.36E+02 | 7.45E+02 | 9.24E+02 | 4.18E+02 | 5.17E+02 | 6.71E+02 | 108 | 93.6 |  |  |  |  |  |  | 
